Data reported in PubChem BioAssay (NCI).
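Results reflect a 48-hour exposure of cells in 96-well plates to compound at five concentrations. TGI: total growth inhibition.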

Legend:
Assay in all cases: NCI tumour cell line growth inhibition, 48 h
CAKI-1 renal = tested on: CAKI-1 renal
DU-145 prostate = tested on: DU-145 prostate
HCC-2998 colon = tested on: HCC-2998 colon
HCT-116 colon = tested on: HCT-116 colon
MCF7 breast = tested on: MCF7 breast
MDA-MB-231 breast = tested on: MDA-MB-231 breast
MDA-MB-435 = tested on: MDA-MB-435
NCI-H522 lung = tested on: NCI-H522 lung
OVCAR-3 ovarian = tested on: OVCAR-3 ovarian
PC-3 prostate = tested on: PC-3 prostate
SF-295 CNS = tested on: SF-295 CNS
SK-MEL-2 melanoma = tested on: SK-MEL-2 melanoma
SK-MEL-28 melanoma = tested on: SK-MEL-28 melanoma
SK-MEL-5 melanoma = tested on: SK-MEL-5 melanoma
SN12C renal = tested on: SN12C renal
SW-620 colon = tested on: SW-620 colon
T-47D breast = tested on: T-47D breast
TK-10 renal = tested on: TK-10 renal
CCRF-CEM leukemia = tested on: CCRF-CEM leukemia
HL-60(TB) leukemia = tested on: HL-60(TB) leukemia

Compound	TGI (CAKI-1 renal)	TGI (DU-145 prostate)	TGI (HCC-2998 colon)	TGI (HCT-116 colon)	TGI (MCF7 breast)	TGI (MDA-MB-231 breast)	TGI (MDA-MB-435)	TGI (NCI-H522 lung)	TGI (OVCAR-3 ovarian)	TGI (PC-3 prostate)	TGI (SF-295 CNS)	TGI (SK-MEL-2 melanoma)	TGI (SK-MEL-28 melanoma)	TGI (SK-MEL-5 melanoma)	TGI (SN12C renal)	TGI (SW-620 colon)	TGI (T-47D breast)	TGI (TK-10 renal)	TGI (CCRF-CEM leukemia)	TGI (HL-60(TB) leukemia)
O=C(OCc1ccccc1)N1CCN(C(=O)OCc2ccccc2)CCN(C(=O)OCc2ccccc2)CCN(C(=O)OCc2ccccc2)CCN(C(=O)OCc2ccccc2)CC1	> 100 µM	> 100 µM	> 100 µM	> 100 µM	> 100 µM	> 100 µM	> 100 µM	> 100 µM	> 100 µM	> 100 µM	> 100 µM	> 100 µM	> 100 µM	33.3 µM	> 100 µM	> 100 µM	> 100 µM	> 100 µM	–	–
NS(=O)(=O)c1nnc(NS(=O)(=O)c2ccccc2C(=O)O)s1	> 100 µM	> 100 µM	> 100 µM	> 100 µM	> 100 µM	> 100 µM	> 100 µM	> 100 µM	> 100 µM	–	> 100 µM	> 100 µM	> 100 µM	> 100 µM	> 100 µM	> 100 µM	> 100 µM	> 100 µM	–	–
O=c1c2ccccc2[nH]c2cc(O)cc(O)c12	–	–	> 100 µM	> 100 µM	–	–	–	86.3 µM	> 100 µM	–	> 100 µM	> 100 µM	> 100 µM	85 µM	> 100 µM	–	–	> 100 µM	> 100 µM	> 100 µM
COc1ccc(-c2cc(-c3cc(F)c(Cl)cc3Cl)on2)cc1OC	> 100 µM	> 100 µM	–	> 100 µM	–	> 100 µM	16.9 µM	> 100 µM	> 100 µM	> 100 µM	> 100 µM	97.7 µM	> 100 µM	43.3 µM	> 100 µM	> 100 µM	> 100 µM	> 100 µM	> 100 µM	63.4 µM
COC(=O)c1ccccc1C1CN=NC12Cc1cccc(C)c1C2=O (stereo unspecified)	> 100 µM	> 100 µM	> 100 µM	> 100 µM	91.9 µM	> 100 µM	> 100 µM	> 100 µM	82.1 µM	–	> 100 µM	> 100 µM	> 100 µM	> 100 µM	> 100 µM	> 100 µM	56.4 µM	> 100 µM	> 100 µM	72.1 µM
CC(=O)OCC1OC(O/C=C(\CN=[N+]=[N-])C(C)=O)C(OC(C)=O)C(OC(C)=O)C1OC(C)=O (stereo unspecified)	10.1 µM	–	35 µM	13.8 µM	28 µM	27.7 µM	26.7 µM	5.08 µM	28.7 µM	27.8 µM	> 100 µM	37.2 µM	89.7 µM	26.2 µM	29.5 µM	16.9 µM	13.4 µM	19.1 µM	3.59 µM	5.27 µM
COc1cc(C2c3cc4c(cc3[C@@H](Nc3cccc([N+](=O)[O-])c3)C3COC(=O)[C@H]23)OCO4)cc(OC)c1O (stereo partly specified)	7.46 µM	–	6.41 µM	21.6 µM	> 100 µM	–	–	11.7 µM	33.2 µM	–	4.94 µM	36.5 µM	> 100 µM	7.87 µM	> 22.2 µM	> 65.4 µM	–	–	–	4.3 µM
